# Laboratory results published in patent US20060111258A1, “Solid N-acylalanine or a salt thereof” (AJINOMOTO CO., INC., priority 2003, published 2006).
# Assays:
# [1] = Evaluation of moisture absorbability during preservation (automatic vapor absorption measurement); type: physicochemical; conditions: average equilibrated moisture at humidity 70% RH, measurement temperature 25° C.
# Experimental: 2. Evaluation of Moisture Absorbability During Preservation: The moisture absorbability was measured under the following measurement conditions and using an automatic vapor absorption measurement apparatus “BELSORP18” manufactured by BELL JAPAN, INC. Measurement conditions: X air thermostatic tank temperature: 50° C.; X measurement temperature: 25° C.; X MAX intake pressure: 0.9×Ps (Ps: saturated vapor pressure at measurement temperature); X MIN exhaust pressure: 0.1×Ps (Ps: saturated vapor pressure at measurement temperature); and X equilibration time: 5 min. Evaluation: Average equilibrated moisture of less than 5% at humidity 70% RH is ⊙, not less than 5% to less than 10% is ◯, not less than 10% to less than 15% is A, not less than 15% is x.
# [2] = Evaluation of caking during preservation; type: physicochemical; conditions: solid N-acylalanine salt; powder 25 g under 770 g spindle, 50° C., 24 hours, visual
# Source text: 3. Evaluation of Caking During Preservation […] […] 6. Evaluation of Caking During Preservation: The measurement apparatus and measurement conditions were the same as in the aforementioned 3.
structure (smiles),measurement,setting,value
"CCCCCCCCCCCC(=O)NC(C)C(=O)[O-].[K+] (racemic) [Example 1, lauroyl-DL-alanine potassium salt]",moisture absorbability during preservation,[1],⊚
same,caking during preservation,[2],⊚
